Experimental data as given in a compilation of properties of binary mixtures (doi:10.1021/je5008857).

Experiment: xn = mol fraction of the nth substance listed
Conditions: 101 kPa

CCS(=O)(=O)[O-].[NH4+] + CC(=O)[O-].CC[n+]1ccn(C)c1
Conditions | electrical conductivity, x1 = 0.05 [S/m] | electrical conductivity, x1 = 0.0999 [S/m] | electrical conductivity, x1 = 0.1701 [S/m] | viscosity, x1 = 0.05 [mPa·s] | viscosity, x1 = 0.0999 [mPa·s] | viscosity, x1 = 0.1701 [mPa·s]
298.15 K | 0.247 | 0.2 | 0.164 | 157 | 210 | 299
303.15 K | 0.323 | 0.266 | 0.222 | 115 | 151 | 210
308.15 K | 0.415 | 0.346 | 0.293 | 86.3 | 111.2 | 151
313.15 K | 0.522 | 0.442 | – | 66.2 | 83.9 | –
318.15 K | – | 0.553 | 0.481 | – | 64.6 | 84.7
323.15 K | 0.775 | – | – | 41.3 | – | –

CC(=O)[O-].CC[n+]1ccn(C)c1 + CC(=O)[O-].[Na+]
x2 = 0
Conditions | electrical conductivity [S/m] | viscosity [mPa·s]
298.15 K | 0.287 | 126.3
303.15 K | 0.374 | 93.6
308.15 K | 0.473 | 71.3
313.15 K | 0.587 | 55.5
318.15 K | 0.76 | 44.2
323.15 K | 0.918 | 35.7

CC(=O)[O-].[NH4+] + CC(=O)[O-].CC[n+]1ccn(C)c1
Conditions | electrical conductivity [S/m] | viscosity [mPa·s]
298.15 K, x1 = 0.0503 | 0.255 | 153
298.15 K, x1 = 0.0999 | 0.226 | 186
298.15 K, x1 = 0.1703 | 0.181 | 261
298.15 K, x1 = 0.2498 | 0.146 | 389
298.15 K, x1 = 0.328 | 0.114 | 572
303.15 K, x1 = 0.0503 | 0.337 | 111.7
303.15 K, x1 = 0.0999 | 0.299 | 134.7
303.15 K, x1 = 0.1703 | 0.242 | 186
303.15 K, x1 = 0.2498 | 0.199 | 271
303.15 K, x1 = 0.328 | 0.158 | 390
303.15 K, x1 = 0.4491 | 0.106 | 673
308.15 K, x1 = 0.0503 | 0.431 | 83.9
308.15 K, x1 = 0.0999 | 0.389 | 100.1
308.15 K, x1 = 0.1703 | 0.319 | 135.5
308.15 K, x1 = 0.2498 | 0.266 | 194
313.15 K, x1 = 0.0503 | 0.542 | 64.6
313.15 K, x1 = 0.2498 | 0.349 | 142.3
313.15 K, x1 = 0.4491 | 0.201 | 321
318.15 K, x1 = 0.0503 | 0.671 | 50.7
318.15 K, x1 = 0.0999 | 0.617 | 59.1
318.15 K, x1 = 0.1703 | 0.519 | 77.2
318.15 K, x1 = 0.4491 | 0.267 | 230
323.15 K, x1 = 0.0503 | 0.862 | 40.5
323.15 K, x1 = 0.0999 | 0.796 | 46.6
323.15 K, x1 = 0.1703 | 0.641 | 59.9
323.15 K, x1 = 0.2498 | 0.562 | 81.3
323.15 K, x1 = 0.328 | 0.471 | 108.4
323.15 K, x1 = 0.4491 | 0.347 | 169

CC(=O)[O-].CC[n+]1ccn(C)c1 + [Cl-].[NH4+]
x2 = 0
Conditions | electrical conductivity [S/m] | viscosity [mPa·s]
298.15 K | 0.287 | 126.3
303.15 K | 0.374 | 93.6
313.15 K | 0.587 | 55.5
323.15 K | 0.918 | 35.7

CC(=O)[O-].[Na+] + CC(=O)[O-].CC[n+]1ccn(C)c1
Conditions | electrical conductivity, x1 = 0.0501 [S/m] | electrical conductivity, x1 = 0.1001 [S/m] | electrical conductivity, x1 = 0.1605 [S/m] | viscosity, x1 = 0.0501 [mPa·s] | viscosity, x1 = 0.1001 [mPa·s] | viscosity, x1 = 0.1605 [mPa·s]
298.15 K | 0.232 | 0.189 | 0.152 | 160 | 205 | 300
303.15 K | 0.305 | – | 0.207 | 117.1 | – | 210
308.15 K | 0.392 | 0.327 | 0.272 | 88 | 109.3 | 153
313.15 K | 0.491 | 0.416 | 0.352 | 67.7 | 83.1 | 113.7
318.15 K | 0.606 | 0.518 | 0.442 | 53.2 | 64.7 | 86.9
323.15 K | 0.734 | 0.632 | 0.537 | 42.7 | 51.3 | 67.9

N#C[S-].[Na+] + CC(=O)[O-].CC[n+]1ccn(C)c1
x1 = 0.0502
Conditions | electrical conductivity [S/m] | viscosity [mPa·s]
298.15 K | 0.242 | 150
303.15 K | 0.316 | 110.4
308.15 K | 0.404 | 83.3
313.15 K | 0.504 | 64.4
318.15 K | 0.618 | 50.9
323.15 K | 0.734 | 40.9

CC(=O)[O-].CC[n+]1ccn(C)c1 + CC(=O)[O-].[NH4+]
x2 = 0
Conditions | electrical conductivity [S/m] | viscosity [mPa·s]
298.15 K | 0.287 | 126.3
303.15 K | 0.374 | 93.6
308.15 K | 0.473 | 71.3
313.15 K | 0.587 | 55.5
318.15 K | 0.76 | 44.2

CC(=O)[O-].CC[n+]1ccn(C)c1 + CCS(=O)(=O)[O-].[NH4+]
x2 = 0
Conditions | electrical conductivity [S/m] | viscosity [mPa·s]
298.15 K | 0.287 | 126.3
308.15 K | 0.473 | 71.3
313.15 K | 0.587 | 55.5
323.15 K | 0.918 | 35.7

CC(=O)[O-].CC[n+]1ccn(C)c1 + N#C[S-].[Na+]
x2 = 0
Conditions | electrical conductivity [S/m] | viscosity [mPa·s]
298.15 K | 0.287 | 126.3
308.15 K | 0.473 | 71.3
318.15 K | 0.76 | 44.2
323.15 K | 0.918 | 35.7

[Cl-].[NH4+] + CC(=O)[O-].CC[n+]1ccn(C)c1
Conditions | electrical conductivity, x1 = 0.0505 [S/m] | electrical conductivity, x1 = 0.0999 [S/m] | electrical conductivity, x1 = 0.1702 [S/m] | electrical conductivity, x1 = 0.25 [S/m] | electrical conductivity, x1 = 0.3297 [S/m] | viscosity, x1 = 0.0505 [mPa·s] | viscosity, x1 = 0.0999 [mPa·s] | viscosity, x1 = 0.1702 [mPa·s] | viscosity, x1 = 0.25 [mPa·s] | viscosity, x1 = 0.3297 [mPa·s]
298.15 K | – | 0.19 | 0.139 | 0.0911 | 0.0567 | – | 236 | 405 | 775 | 1608
303.15 K | – | 0.255 | 0.192 | 0.13 | 0.0843 | – | 168 | 278 | 511 | 1040.8
308.15 K | 0.398 | 0.333 | 0.259 | 0.179 | 0.121 | 92.9 | 122.6 | 196 | 348 | 693
313.15 K | 0.501 | – | – | 0.242 | 0.169 | 71 | – | – | 245 | 478
318.15 K | – | 0.537 | 0.439 | 0.32 | 0.23 | – | 70.2 | 106.2 | 177 | 339
323.15 K | – | 0.661 | 0.552 | 0.414 | 0.305 | – | 54.7 | 80.6 | 130.5 | 246
